In patent US10383849B2, “Use of an acetylcholinesterase inhibitor and idalopirdine for reducing falls in Parkinson's disease patients” (H. Lundbeck A/S, priority 2016, dated 2019):

Key:
[1] = test system: DL rats (dual striatal-dopaminergic, cortical cholinergic system lesions); assay: MCMCT rod traversal, stationary and rotating rod (test days 2-5), Example 1; format: in vivo, Sprague Dawley rats; details: for number of slips: rod days 2-5, DL/VEH 2.04+0.16, SH/VEH 1.60+0.11; for traversal speed (time per rod traversal): rod days 2-5, DL/VEH 4.62±0.25 s, SH/VEH 3.96±0.19 s, mean±SEM; for frequency of falls during rod traversal: s.c. 30 min before MCMCT, across all rod conditions days 2-5, compared with DL/VEH
Procedure: Adult male and female Sprague Dawley rats (Harlan; N=70; 35 males and 35 females) between 3 and 6 months of age were individually housed in opaque single standard cages (27.70 cm×20.30 cm) in a temperature- and humidity-controlled environment (23° C., 45%). […] The animals were maintained under a 12:12 hour light/dark schedule (lights on at 8:00 AM). Food (Rodent Chow; Harlan Teklad) was available ad libitum. Water access was gradually restricted over a 7-day period (12, 8, 5, 3, 1, 0.5, 0.25 hrs of water access per day) in the week before pre- and postsurgery behavioral testing. During testing, water was provided as rewards for correct responses during SAT performance and following beam traversals on the MCMCT (see below). Rats were also provided water ad libitum for 15 min following SAT performance each day.
Following pre-surgery training, animals underwent stereotaxic lesion surgeries followed by 4 weeks of recovery. During the final week of recovery animals were gradually water restricted. Drug effects were then assessed with 12 consecutive days of SAT and MCMCT sessions (see Table 1 for the battery of MCMCT test conditions):
Drug or vehicle injections were administered 30 minutes prior to SAT performance (˜9:30 injections, SAT testing 10:00-10:45 a.m.) and in the afternoon before MCMCT testing (˜3:30-6:00 p.m.). For the MCMCT runs, rats were injected individually so that trials began exactly 30 minutes after injection for each animal.
(§1) Of the 70 rats, 56 (28 females and 28 males) received dual striatal-dopaminergic, corticalcholinergic system lesions (DL) and were randomly assigned to 4 treatment conditions after surgeries (n=14/group, 7/sex). 14 rats (7/sex) received sham lesions. 6-OHDA was delivered bilaterally to dopamine terminals in the dorsal striatum (Sigma-Aldrich; 6.0 μg/2 μL/infusion, bolus; dissolved in 0.9% NaCl with 0.1% ascorbic acid; two infusion sites per hemisphere: AP+1.2 and +0.2 mm; ML ±2.5 and ±3.0 mm relative to bregma; DV −4.8 and −5.0 mm from skull). Desipramine hydrochloride (10 mg/kg; i.p.; Sigma-Aldrich) was administered to rats receiving 6-OHDA infusions 30 min prior to surgeries for protection of noradrenergic neurons^4. Basal forebrain cholinergic neurons situated in the nucleus basalis and substantia innominate were targeted with immunotoxin 192 IgG-saporin (Advanced Targeting Systems) in aCSF infused bilaterally (120 ng/μL; 0.5 μL/hemisphere; AP −0.8; ML ±2.9; DV −7.8). Sham rats received equal volumes of 0.9% NaCl with 0.1% ascorbic acid (striatum) and aCSF (basal forebrain) without neurotoxins.
Complex movement performance measures including fall propensity were assessed using the MCMCT (for details and an illustration see Kucinski, A. et al (2013) Modelling fall propensity in Parkinson's disease: Deficits in the attentional control of complex movements in rats with cortical-cholinergic and striatal-dopaminergic deafferentation. J Neurosci, 33, 16522-16539). This beam traversal apparatus was designed to tax the ability of rats to perform attention demanding movements and correct for stepping errors while crossing a narrow square rod surface (2.54 cm2). The ends of the beam (2.0 m length) were held in sockets that allowed the rod to be rotated by a gear motor (10 RPM) coupled to one end of the beam element. Traversal of the rod, particularly when rotating, reliably generated falls and other movement impairments in rats with dual lesions of striatal dopaminergic and cortical cholinergic inputs. A flat plank surface (13.3 cm wide) was also used to assess basic motor capacity and for habituation to the apparatus. Two identical platforms (23.0×31.5 cm area) situated at the opposite ends of the beam were surrounded by retractable walls (27.0 cm height) to form end-box structures. The walls are raised and lowered manually and secured in position by a friction clamp which rides in a vertical slot in the support structure under the platform. […]

[2] = test system: DL rats (dual striatal-dopaminergic, cortical cholinergic system lesions); assay: MCMCT rotating rod with passive doorframe distractor (test days 6, 7, 11); format: in vivo, Sprague Dawley rats; details: compared with SH/VEH rats
Procedure: Of the 70 rats, 56 (28 females and 28 males) received dual striatal-dopaminergic, corticalcholinergic system lesions (DL) and were randomly assigned to 4 treatment conditions after surgeries (n=14/group, 7/sex). 14 rats (7/sex) received sham lesions. 6-OHDA was delivered bilaterally to dopamine terminals in the dorsal striatum (Sigma-Aldrich; 6.0 μg/2 μL/infusion, bolus; dissolved in 0.9% NaCl with 0.1% ascorbic acid; two infusion sites per hemisphere: AP+1.2 and +0.2 mm; ML ±2.5 and ±3.0 mm relative to bregma; DV −4.8 and −5.0 mm from skull). […]
Complex movement performance measures including fall propensity were assessed using the MCMCT (for details and an illustration see Kucinski, A. et al (2013) Modelling fall propensity in Parkinson's disease: Deficits in the attentional control of complex movements in rats with cortical-cholinergic and striatal-dopaminergic deafferentation. J Neurosci, 33, 16522-16539). […]
Falls, slips, and traversal time were assessed as described in Kucinski, A. et al (2013) Modelling fall propensity in Parkinson's disease: Deficits in the attentional control of complex movements in rats with cortical-cholinergic and striatal-dopaminergic deafferentation. […] A slip was scored when any of the rats' paws lost contact with the surface of the rod and extended below the lower horizontal border of the rod. […]

[3] = test system: DL rats (dual striatal-dopaminergic, cortical cholinergic system lesions); assay: MCMCT rotating rod with active distractor (water retrieval); format: in vivo, Sprague Dawley rats; details: for number of animals that retrieved water in at least one trial: of 14 DL rats per group, licking water for at least 1 s, DL/VEH 9, SH/VEH 13
Procedure: as §1
Two distractors were presented during traversals. First, a passive doorframe distractor, comprised of a 46.0×39.4 cm surface with a door-frame shape cutout of 20 cm×10 cm made of foam core, was incorporated into the MCMCT test sequence. The distractor was placed at the midway point along the beam (100 cm mark) with side jambs 3.5 cm from the rod surface on both sides and the top border of the doorframe cutout 11 cm above the flat rod surface. […] Second, animals were tested with an active distractor task in which a water reward (3 drops of water; ˜150 μL) was presented on a platform (4.9 cm diameter) during traversals. The platform was also placed at the 100 cm mark, with 2-3 cm separating the rod and the platform.
Rats were first acclimated to the task in 4 shaping trials (test days 8 and 9). In these trials rats were placed directly on the stationary (non-rotating) rod adjacent to the platform (approximately midway across the beam) and allowed to drink the water from the platform. After shaping trials, rats underwent 4 test trials in which the rats performed unassisted traversals of the rotating rod (alternating directions) with presentations of water rewards. In two other test days (10 and 12), rats performed 10 test runs per day. In addition to falls, the number of water rewards earned, defined as licking/drinking water from the platform for ≥1 sec, were counted. All trials were recorded using a system of 4 bullet cameras (KT&C; model KPCS190SH Black/White Bullet Camera with ⅓″ SONY Super HAD CCD) with rotatable bases that were fastened to the outer support frame of the outer side of the apparatus by hand clamps. Performance measures were analyzed by video playback by experimenters blind to the lesion status and treatment regimen of the rats
Donepezil and idalopirdine were dissolved in 5% 2-hydroxypropyl-beta-cyclodextrin vehicle solution. Rats were divided into the following drug administration groups (14 per group, 7 per sex): sham-lesioned and administered vehicle (SH/VEH), DL and vehicle (DL/VEH), DL and donepezil (DL/DON), DL and idalopirdine (DL/IDL), and DL and idalopirdine plus donepezil (DL/DON+IDL). Solutions were prepared the night before administration and were replaced every 6 days. DON and IDL were dissolved in the same solution for the combination treatment. […]

patients with AD = details: compared to donepezil treated patients; cited from earlier work

Row | Compound | number of slips [1] | traversal speed (time per rod traversal) [1] [s] | frequency of falls during rod traversal [1] | doorframe-associated falls (fall rates in the presence of the doorframe) [2] | rod traversal performance in the presence of the active distractor ([3]; DL rats) | number of animals that retrieved water in at least one trial [3] | secondary endpoints including measures of global impression and daily living activities (patients with AD) | water retrieval count ([3]; DL rats, multiple comparisons (FIG. 3B))
1 | Fc1ccc2c(CCNCc3cccc(OCC(F)(F)C(F)F)c3)c[nH]c2c1 [IDL, N-(2-(6-fluoro-1H-indol-3-yl)ethyl)-3-(2,2,3,3-tetrafluoropropoxy) benzylamine] | 2.51+0.38 | 5.48 ± 0.45 | fell as frequently as untreated DL rats | experienced more doorframe-associated falls than SH/VEH rats | did not significantly improve the performance | 11 | positive results | –
2 | COc1cc2c(cc1OC)C(=O)C(CC1CCN(Cc3ccccc3)CC1)C2 (centres unmarked) [DON, donepezil] | 2.04+0.14 | 4.48 ± 0.36 | tended to be lower than in DL/VEH rats but the effect did not reach significance | experienced more doorframe-associated falls than SH/VEH rats | did not significantly improve the performance | 10 | – | not significantly lower than DL/VEH
